These are literature values, as cited in US11229595B2, “Skin barrier preparation and method therefor” (Johnson & Johnson Consumer Inc., priority 2019, dated 2022).

The series has as its system skin. The settings on record: eight volunteers, four compounds compared, patches during 24 hours.

Regarding `CN(C)CCCN1c2ccccc2CCc2ccccc21` [imipramine], the “increase of TEWL” value was “increased the least TEWL”. As for `CCCCCCCCC(=O)O` [nonanoic acid], the “increase of TEWL” value is “increased the least TEWL”.
